Results as given in patent publication US7109380B2, “Cyclopentenedione antifungal compounds and methods for their use” (The University of Mississippi, priority 2004, dated 2006).

Experiments:
Test in all cases: 96-well microtiter fungal growth assay;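 for Mean percent fungal growth inhibition of Botrytis cinerea: percent relative to untreated positive growth controls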;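 for Mean percent fungal growth inhibition of Colletotrichum acutatum: percent relative to untreated positive growth controls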;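 for Mean percent fungal growth inhibition of Colletotrichum fragariae: percent relative to untreated positive growth controls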;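 for Mean percent fungal growth inhibition of Colletotrichum gloeosporoides: percent relative to untreated positive growth controls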;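 for Mean percent fungal growth inhibition of Fusarium oxysporum: percent relative to untreated positive growth controls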;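 for Mean percent fungal growth inhibition of Phomopsis viticola: percent relative to untreated positive growth controls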
Type in all cases: cell-based
[1] = tested on: Botrytis cinerea;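 note: percent relative to untreated positive growth controls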
Description: (§1) Pathogen collection. Isolates of Colletotrichum acutatum Simmonds, Colletotrichum fragariae Brooks, and Colletotrichum gloeosporioides (Penz.) Penz. & Sacc. in Penz. were obtained from B. J. Smith, USDA, ARS, Small Fruit Research Station, Poplarville, Mass. Colletotrichum fragariae (isolate CF63), C. acutatum (isolate CAGoff), and C. gloeosporioides (isolate CG162) were used for all pathogen and bioautography studies. Isolate CF63 is one of the most virulent isolates at infecting strawberry plants and inducing both crown and fruit rot (Smith and Black, 1990). CF63, CAGoff, and CG162 were used as standard test isolates because of our extensive knowledge of these isolates and their known fungicide sensitivity profiles in both bioautography and microtiter formats. The three Colletotrichum species were isolated from strawberry (Fragaria xananassa Duchesne). Botrytis cinerea Pers.:Fr, was isolated from commercial grape (Vitis vinifera L.) and Fusarium oxysporum Schlechtend:Fr from orchid (Cynoches sp.) by David E. Wedge, USDA ARS Natural Products Utilization Research Unit. Phomopsis viticola (Sacc.) and P. obscurans (Ellis & Everh.) Sutton were from Mike A. Ellis, Ohio State University, Wooster, Ohio. Fungi were grown on potato-dextrose agar (PDA, Difco, Detroit Mich.) in 9 cm petri dishes and incubated in a growth chamber at 24±2° C. and under cool-white fluorescent lights ([…]·m^−2·sec^−1 light) with 12-h photoperiod.
(§2) Inoculum preparation. Conidia were harvested from 7–10 day-old cultures by flooding plates with 5 mL of sterile distilled water and dislodging conidia by softly brushing the colonies with an L-shaped glass rod. Conidial suspensions were filtered through sterile miracloth (Calbiochem-Novabiochem Corp., La Jolla Calif.) to remove mycelia. Conidia concentrations were determined photometrically, from a standard curve based on the absorbance at 625 nm and suspensions were then adjusted with sterile distilled water to a concentration of 1.0×10^6 conidia/mL.
(§3) Microtiter assay. A standardized 96-well microtiter plate assay developed for discovery of natural product fungicidal agents. A 96-well microtiter assay was used to determine sensitivity of B. cinerea, C. acutatum, C. fragariae, C. gloeosporioides, F. oxysporum, Phomopsis viticola, and P. obscurans to the various antifungal agents in comparison with known fungicidal standards. Vinclozolin, captan, and thiabendazole, which represent three different modes of action, were used as standards in this experiment. Each fungus was challenged in a dose-response format using test compounds where the final treatment concentrations were 0.3, 3.0 and 30.0 μM. Microtiter plates (Nunc MicroWell, untreated; Roskilde, Denmark) were covered with a plastic lid and incubated in a growth chamber at 24±1 C and 12 h photoperiod under 60±5 μmol light. Growth was then evaluated by measuring absorbance of each well at 620 nm using a microplate photometer (Packard Spectra Count, Packard Instrument Co., Downers Grove, Ill.).
(§4) Microbioassay Experimental Design. Chemical sensitivity of each fungus 96-well microtiter assay is used to determine sensitivity of B. cinerea, C. acutatum, C. fragariae, C. gloeosporioides, F. oxysporum, Phomopsis viticola, and P. obscurans. Each chemical is evaluated in duplicate at each dose (0.3, 3.0 and 30.0 μM) and repeated twice in time. Sixteen wells containing broth and inoculum serves as positive controls, eight wells containing solvent at the appropriate concentration and broth without inoculum are used as negative controls. Mean absorbance values and standard errors is used to evaluate fungal growth at 48 hrs and 72 hrs except for P. obscurans and P. viticola the data are recorded at 120 hrs. […] Treatments are arranged as a split-plot design replicated twice in time. Whole-plots were fungal isolates and sub-plots are chemicals. Each dose level and response time is analyzed separately. […]

[2] = tested on: Colletotrichum acutatum;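 note: percent relative to untreated positive growth controls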
Description: as §1, §2, §3, §4

[3] = tested on: Colletotrichum fragariae;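 note: percent relative to untreated positive growth controls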
Description: as §1, §2, §3, §4

[4] = tested on: Colletotrichum gloeosporioides;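 note: percent relative to untreated positive growth controls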
Description: as §1, §2, §3, §4

[5] = tested on: Fusarium oxysporum;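 note: percent relative to untreated positive growth controls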
Description: as §1, §2, §3, §4

[6] = tested on: Phomopsis obscurans
Description: as §1, §2, §3
(§5) Microbioassay Experimental Design. Chemical sensitivity of each fungus 96-well microtiter assay is used to determine sensitivity of B. cinerea, C. acutatum, C. fragariae, C. gloeosporioides, F. oxysporum, Phomopsis viticola, and P. obscurans. Each chemical is evaluated in duplicate at each dose (0.3, 3.0 and 30.0 μM) and repeated twice in time. Sixteen wells containing broth and inoculum serves as positive controls, eight wells containing solvent at the appropriate concentration and broth without inoculum are used as negative controls. […] Treatments are arranged as a split-plot design replicated twice in time. Whole-plots were fungal isolates and sub-plots are chemicals. Each dose level and response time is analyzed separately. The SAS system's analysis of variance procedure (Statistical Analysis System, Cary, N.C.) is used to identify significant factors and Fisher's protected LSD is used to separate means.

[7] = tested on: Phomopsis viticola;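 note: percent relative to untreated positive growth controls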
Description: as §1, §2, §3, §5

With `Cc1cc(C2CC2)nc(Nc2ccccc2)n1` [Cyprodinil] the “Mean percent fungal growth inhibition of Botrytis cinerea” value ([1]; 0.3 μm, 48 hrs) was −96.6 ± 2.3%, the “Mean percent fungal growth inhibition of Botrytis cinerea” value ([1]; 0.3 μm, 72 hrs) was 26.56 ± 14.1% and the “Mean percent fungal growth inhibition of Botrytis cinerea” value ([1]; 3.0 μm, 48 hrs) was −90.2 ± 3.3%. The “Mean percent fungal growth inhibition of Botrytis cinerea” value ([1]; 3.0 μm, 72 hrs) was −81.4 ± 9.2%, the “Mean percent fungal growth inhibition of Botrytis cinerea” value ([1]; 30 μm, 48 hrs) was −94.2 ± 2.1% and the “Mean percent fungal growth inhibition of Botrytis cinerea” value ([1]; 30 μm, 72 hrs) was −96.2 ± 1.5%. For the same compound, the “Mean percent fungal growth inhibition of Colletotrichum acutatum” value ([2]; 0.3 μm, 48 hrs) was −102.2 ± 0.9%, the “Mean percent fungal growth inhibition of Colletotrichum acutatum” value ([2]; 0.3 μm, 72 hrs) was −94.5 ± 4.4% and the “Mean percent fungal growth inhibition of Colletotrichum acutatum” value ([2]; 3.0 μm, 48 hrs) was −98.1 ± 0.7%. The “Mean percent fungal growth inhibition of Colletotrichum acutatum” value ([2]; 3.0 μm, 72 hrs) was −98.3 ± 0.6%, the “Mean percent fungal growth inhibition of Colletotrichum acutatum” value ([2]; 30 μm, 48 hrs) was −99.7 ± 0.7% and the “Mean percent fungal growth inhibition of Colletotrichum acutatum” value ([2]; 30 μm, 72 hrs) was −99.0 ± 0.3%. For the same compound, the “Mean percent fungal growth inhibition of Colletotrichum fragariae” value ([3]; 0.3 μm, 48 hrs) was −94.1 ± 1.4%, the “Mean percent fungal growth inhibition of Colletotrichum fragariae” value ([3]; 0.3 μm, 72 hrs) was −54.1 ± 19.3% and the “Mean percent fungal growth inhibition of Colletotrichum fragariae” value ([3]; 3.0 μm, 48 hrs) was −89.0 ± 1.6%. For the same compound, the “Mean percent fungal growth inhibition of Colletotrichum fragariae” value ([3]; 3.0 μm, 72 hrs) was −76.7 ± 4.7%, the “Mean percent fungal growth inhibition of Colletotrichum fragariae” value ([3]; 30 μm, 48 hrs) was −95.5 ± 0.5% and the “Mean percent fungal growth inhibition of Colletotrichum fragariae” value ([3]; 30 μm, 72 hrs) was −92.5 ± 3.2%. The “Mean percent fungal growth inhibition of Colletotrichum gloeosporoides” value ([4]; 0.3 μm, 48 hrs) was −89.9 ± 2.7%, the “Mean percent fungal growth inhibition of Colletotrichum gloeosporoides” value ([4]; 0.3 μm, 72 hrs) was −62.9 ± 9.3% and the “Mean percent fungal growth inhibition of Colletotrichum gloeosporoides” value ([4]; 3.0 μm, 48 hrs) was −85.4 ± 6.6%. The “Mean percent fungal growth inhibition of Colletotrichum gloeosporoides” value ([4]; 3.0 μm, 72 hrs) was −76.4 ± 6.3%, the “Mean percent fungal growth inhibition of Colletotrichum gloeosporoides” value ([4]; 30 μm, 48 hrs) was −95.1 ± 1.0% and the “Mean percent fungal growth inhibition of Colletotrichum gloeosporoides” value ([4]; 30 μm, 72 hrs) was −91.1 ± 1.6%. The “Mean percent fungal growth inhibition of Fusarium oxysporum” value ([5]; 0.3 μm, 48 hrs) was 16.4 ± 3.9%, the “Mean percent fungal growth inhibition of Fusarium oxysporum” value ([5]; 0.3 μm, 72 hrs) was 7.9 ± 2.9% and the “Mean percent fungal growth inhibition of Fusarium oxysporum” value ([5]; 3.0 μm, 48 hrs) was 2.6 ± 2.6%. For the same compound, the “Mean percent fungal growth inhibition of Fusarium oxysporum” value ([5]; 3.0 μm, 72 hrs) was 1.8 ± 2.7%, the “Mean percent fungal growth inhibition of Fusarium oxysporum” value ([5]; 30 μm, 48 hrs) was −67.4 ± 4.3% and the “Mean percent fungal growth inhibition of Fusarium oxysporum” value ([5]; 30 μm, 72 hrs) was −41.5 ± 5.1%. The “Percent change in fungal growth vs control (negative = inhibition)” value (from here on “Percent change … (negative = inhibition)”) ([6]; 0.3 μm, 120 hrs) was −51.4 ± 5.9%, the “Percent change … (negative = inhibition)” value ([6]; 0.3 μm, 144 hrs) was −46.3 ± 6.0% and the “Percent change … (negative = inhibition)” value ([6]; 3.0 μm, 120 hrs) was −64.5 ± 10.7%. For the same compound, the “Percent change … (negative = inhibition)” value ([6]; 3.0 μm, 144 hrs) was −72.6 ± 3.9%, the “Percent change … (negative = inhibition)” value ([6]; 30 μm, 120 hrs) was −86.8 ± 1.3% and the “Percent change … (negative = inhibition)” value ([6]; 30 μm, 144 hrs) was −81.5 ± 2.5%. For the same compound, the “Mean percent fungal growth inhibition of Phomopsis viticola” value ([7]; 0.3 μm, 120 hrs) was −219 ± 122.1%, the “Mean percent fungal growth inhibition of Phomopsis viticola” value ([7]; 3.0 μm, 120 hrs) was −184.6 ± 87.0% and the “Mean percent fungal growth inhibition of Phomopsis viticola” value ([7]; 3.0 μm, 144 hrs) was 451.7 ± 331.5%. The “Mean percent fungal growth inhibition of Phomopsis viticola” value ([7]; 30 μm, 120 hrs) was −176.2 ± 48.2% and the “Mean percent fungal growth inhibition of Phomopsis viticola” value ([7]; 30 μm, 144 hrs) was 80.4 ± 111.6%.
